The source made the active and inactive calls.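 How the source made its calls: active means compounds whose EC50, the dose giving half of full IDE activation, is 100 µM or lower; inactive means EC50 above 100 µM or not measured.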
Molecular target: Insulin-degrading enzyme (Homo sapiens) (UniProt P14735)
Assay: activators of wild-type recombinant IDE, late-stage follow-up, counter-screen for IDE activator project, biochemical, fluorescence polarization, run by assay provider (AID 624043)
Conditions: FAbetaB cleavage

Insulin-degrading enzyme (Homo sapiens), sequence (P14735 whole entry, looked up): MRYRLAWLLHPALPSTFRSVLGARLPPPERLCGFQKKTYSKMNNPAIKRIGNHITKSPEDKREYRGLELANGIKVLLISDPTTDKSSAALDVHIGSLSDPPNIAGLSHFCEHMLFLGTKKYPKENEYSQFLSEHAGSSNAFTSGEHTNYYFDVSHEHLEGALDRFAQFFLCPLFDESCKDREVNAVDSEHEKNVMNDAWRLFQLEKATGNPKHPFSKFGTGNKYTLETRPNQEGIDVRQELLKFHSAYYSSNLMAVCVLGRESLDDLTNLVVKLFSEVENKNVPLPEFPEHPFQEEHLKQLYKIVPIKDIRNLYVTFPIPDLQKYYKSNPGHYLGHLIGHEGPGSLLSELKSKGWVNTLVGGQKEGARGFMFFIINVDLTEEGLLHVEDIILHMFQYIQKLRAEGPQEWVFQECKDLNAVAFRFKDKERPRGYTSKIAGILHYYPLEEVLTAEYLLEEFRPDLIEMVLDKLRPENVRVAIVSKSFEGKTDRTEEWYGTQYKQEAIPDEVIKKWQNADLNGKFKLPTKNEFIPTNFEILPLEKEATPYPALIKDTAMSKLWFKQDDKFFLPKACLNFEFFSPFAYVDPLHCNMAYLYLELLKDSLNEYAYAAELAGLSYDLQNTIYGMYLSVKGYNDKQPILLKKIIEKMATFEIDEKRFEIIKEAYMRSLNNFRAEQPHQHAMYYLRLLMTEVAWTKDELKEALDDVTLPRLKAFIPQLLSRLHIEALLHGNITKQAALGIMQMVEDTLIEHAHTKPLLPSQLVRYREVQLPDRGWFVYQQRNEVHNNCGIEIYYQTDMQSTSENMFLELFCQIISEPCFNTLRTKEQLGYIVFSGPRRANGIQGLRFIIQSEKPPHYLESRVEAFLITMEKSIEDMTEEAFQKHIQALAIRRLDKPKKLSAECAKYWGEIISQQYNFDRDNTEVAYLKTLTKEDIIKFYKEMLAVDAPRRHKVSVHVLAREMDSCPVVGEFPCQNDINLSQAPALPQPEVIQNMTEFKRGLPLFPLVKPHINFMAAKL

| EC50 | Structure (SMILES) |
| --- | --- |
| > 15 µM (inactive) | CC(C)CCn1nnnc1C(C(C)C)N1CCN(c2ccccc2)CC1 (stereo not drawn) |
| > 15 µM (inactive) | CC(C)CCn1nnnc1CN1CCN(c2ccccc2F)CC1 |
| > 15 µM (inactive) | CCC(c1nnnn1CCC(C)C)N1CCN(c2ccccc2)CC1 (stereo not drawn) |
